Assay results as given in patent US20240262835A1, “PRMT5 INHIBITING COMPOUNDS AND USES THEREOF” (ANTENGENE DISCOVERY LIMITED, priority 2023, published 2024).
Where two headings read alike, the source gives them in different places.

Experiments:
in vitro [1] = conditions: rat, microsomes
[2] = Hepatic metabolic stability (HMS) assay, human hepatocytes; conditions: human, cryopreserved hepatocytes
Description: 1) 10 mM test compounds were provided.
(§8) 2) 30 mM positive control stock solutions: Dissolved accurate amount of positive control compounds in dimethyl sulfoxide (DMSO).
(§9) 3) 1000× Stock Solution: Diluted 10 mM test compounds and 30 mM positive control compounds to 1 mM and 3 mM with DMSO in 96-well plates.
(§10) 4) 100× Dosing Solution: Diluted 1 mM test compounds and 3 mM positive control compounds to 100 μM and 300 μM dosing solutions with ACN.
(§11) 5) Preparation of 0.5×10^6/mL cells suspension: cryopreserved cells were thawed, isolated and suspended in Incubation Medium, then diluted with pre-warmed Incubation Medium to 0.5×10^6 cells/mL.
(§12) 6) Add 198 μL of pre-warmed cell suspensions in 96-well plates.
(§13) 7) Preparation of Quenching Plate: Transfer 125 μL of stop solution in a set of pre-labeled 96-well plates.
(§14) 8) Spike 2 μL dosing solution to each well of 96-well plates in duplicate.
(§15) 9) For TO Samples, mix to achieve a homogenous suspension for about 1 min, then immediately transfer 25 μL of each sample into well containing 125 μL of ice-cold stop solution followed by mixing.
(§16) 10) Incubate all plates at 37° C. in a 95% humidified incubator at 5% CO2 to start the reactions with constant shaking.
(§17) 11) At 15, 30, 60 and 90 min, mix samples and then transfer 25 μL of each sample at each time point to well containing 125 μL of ice-cold stop solution followed by mixing.
(§18) 12) Medium Control (MC) sample plates (labeled as TO-MC and T90-MC) are prepared in the same way as cell incubation except that medium was used instead of cell suspension.
(§19) 13) At each corresponding time point, stop the reactions by removing the plates from incubator and mixing with 125 μL of ice-cold stop solution.
(§20) 14) Vortex the plates immediately on a plate shaker at 600 rpm for 10 minutes. Then, centrifuge all sample plates at 3220×g for 20 min at 4° C.
(§21) 15) After centrifugation, 80 μL/well of supernatant in the sample plates are transferred to another set of pre-labeled 96-well plates which containing 240 μL of ultra pure water according to the plate map.
(§22) 16) Analytical plates are sealed and store at 4° C. until LC-MS/MS analysis.
(§23) The remaining percents of test articles after incubation were calculated by the follow equations:
(§24) Use the following equation of first order kinetics to calculate T1/2 and CLint:

[3] = Hepatic metabolic stability (HMS) assay, mouse hepatocytes; conditions: mouse, cryopreserved hepatocytes
in vitro [4] = conditions: dog, microsomes
[5] = Hepatic metabolic stability (HMS) assay, rat hepatocytes; conditions: rat, cryopreserved hepatocytes
Description: 1) 10 mM test compounds were provided.
as §8, §9, §10, §11, §12, §13, §14, §15, §16, §17, §18, §19, §20, §21, §22, §23, §24

CYP1A2 = CYP1A2 (Homo sapiens (Human), UniProt P05177); conditions: microsomes
Description: (§1) CYP isoforms inhibitory activities of test compounds were measured in human liver microsome.
(§2) Preparation details of these substrates are given in below table. The substrate stock solution was stored in a −20° C. freezer. Prior to use, the substrate stock solution was removed from the freezer and allowed to rise to room temperature. Then the substrate stock solution was mixed on a whirly mixer for 30 seconds.
(§3) HLMs were stored in a −80° C. freezer. Prior to use, the pooled HLM was removed from the freezer and allowed to thaw in a 37° C. water bath and then stored on wet ice.
(§4) The positive control inhibitors and their concentrations used by each isozyme are summarized below.
(§5) All samples were incubated in a 37° C. water bath, with three parallels for each concentration of the test compound and two parallels for each concentration of the positive control inhibitor. 100 μL of microsome working solution was taken and added 2 μL of the test product or positive inhibitor working solution. 2 μL solvents was added to the solvent control, and put in a water bath to pre-incubate for 10 min. After pre-incubation, 98 μL of NADPH regeneration solution was added to all samples to start the reaction. Then the mixture was put back in the water bath and incubated for a certain period of time.
(§6) The reaction was quenched by 200 μL stop solution. […]
(§7) IC50 values were determined using 3- or 4-parameter logistic equation.

CYP2C19 = CYP2C19 (Homo sapiens (Human), UniProt P33261); assay: CYP isoforms inhibitory assay in human liver microsome, CYP2C19; assay type: in vitro ADME; conditions: substrate s-mephenytoin
Description: as §1, §2, §3, §4, §5, §6, §7

[6] = mouse, microsomes
CYP3A4 = CYP3A4 (Homo sapiens (Human), UniProt P08684); assay: CYP isoforms inhibitory assay in human liver microsome, CYP3A4
Description: as §1, §2, §3, §4, §5, §6, §7

[7] = system: cryopreserved hepatocytes
Description: 1) 10 mM test compounds were provided.
as §8, §9, §10, §11, §12, §13, §14, §15, §16, §17, §18, §19, §20, §21, §22, §23, §24

[8] = system: cryopreserved hepatocytes; remark: listed apart in the source
Description: 1) 10 mM test compounds were provided.
as §8, §9, §10, §11, §12, §13, §14, §15, §16, §17, §18, §19, §20, §21, §22, §23, §24

[9] = system: cryopreserved hepatocytes; remark: listed apart in the source
Description: 1) 10 mM test compounds were provided.
as §8, §9, §10, §11, §12, §13, §14, §15, §16, §17, §18, §19, §20, §21, §22, §23, §24

[10] = system: cryopreserved hepatocytes; remark: listed apart in the source
[11] = system: cryopreserved hepatocytes; remark: listed apart in the source
Description: 1) 10 mM test compounds were provided.
as §8, §9, §10, §11, §12, §13, §14, §15, §16, §17, §18, §19, §20, §21, §22, §23, §24

[12] = Liver microsome metabolic stability (LMS) assay, human

Chain of CYP3A4 (P08684 whole entry, canonical isoform): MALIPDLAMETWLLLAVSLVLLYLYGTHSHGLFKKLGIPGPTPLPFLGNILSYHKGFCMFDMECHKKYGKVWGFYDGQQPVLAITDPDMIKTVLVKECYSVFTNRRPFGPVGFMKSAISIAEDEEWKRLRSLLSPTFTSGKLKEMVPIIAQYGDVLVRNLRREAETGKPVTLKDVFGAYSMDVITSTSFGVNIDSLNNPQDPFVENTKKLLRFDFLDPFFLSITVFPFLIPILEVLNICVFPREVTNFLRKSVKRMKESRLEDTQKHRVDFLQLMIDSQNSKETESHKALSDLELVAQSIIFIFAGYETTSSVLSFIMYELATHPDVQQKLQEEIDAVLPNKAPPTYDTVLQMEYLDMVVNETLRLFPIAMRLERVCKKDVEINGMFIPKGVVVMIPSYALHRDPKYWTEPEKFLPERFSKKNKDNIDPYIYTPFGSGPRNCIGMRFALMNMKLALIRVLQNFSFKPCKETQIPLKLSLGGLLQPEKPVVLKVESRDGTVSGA
Chain of CYP2C19 (P33261 whole entry, canonical isoform): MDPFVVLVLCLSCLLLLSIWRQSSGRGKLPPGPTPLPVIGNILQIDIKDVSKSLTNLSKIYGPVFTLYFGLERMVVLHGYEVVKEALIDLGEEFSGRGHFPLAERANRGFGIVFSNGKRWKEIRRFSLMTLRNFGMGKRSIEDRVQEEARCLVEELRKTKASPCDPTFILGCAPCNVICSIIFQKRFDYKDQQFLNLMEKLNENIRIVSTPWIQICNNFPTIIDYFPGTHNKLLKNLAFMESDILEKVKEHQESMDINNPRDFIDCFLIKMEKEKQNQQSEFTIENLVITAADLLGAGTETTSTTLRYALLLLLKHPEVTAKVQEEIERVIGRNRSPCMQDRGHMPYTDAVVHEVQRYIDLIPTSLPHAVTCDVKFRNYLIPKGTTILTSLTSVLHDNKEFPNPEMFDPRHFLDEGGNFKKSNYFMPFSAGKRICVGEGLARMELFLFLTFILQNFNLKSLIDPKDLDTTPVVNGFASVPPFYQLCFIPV
Chain of CYP1A2 (P05177 whole entry, canonical isoform): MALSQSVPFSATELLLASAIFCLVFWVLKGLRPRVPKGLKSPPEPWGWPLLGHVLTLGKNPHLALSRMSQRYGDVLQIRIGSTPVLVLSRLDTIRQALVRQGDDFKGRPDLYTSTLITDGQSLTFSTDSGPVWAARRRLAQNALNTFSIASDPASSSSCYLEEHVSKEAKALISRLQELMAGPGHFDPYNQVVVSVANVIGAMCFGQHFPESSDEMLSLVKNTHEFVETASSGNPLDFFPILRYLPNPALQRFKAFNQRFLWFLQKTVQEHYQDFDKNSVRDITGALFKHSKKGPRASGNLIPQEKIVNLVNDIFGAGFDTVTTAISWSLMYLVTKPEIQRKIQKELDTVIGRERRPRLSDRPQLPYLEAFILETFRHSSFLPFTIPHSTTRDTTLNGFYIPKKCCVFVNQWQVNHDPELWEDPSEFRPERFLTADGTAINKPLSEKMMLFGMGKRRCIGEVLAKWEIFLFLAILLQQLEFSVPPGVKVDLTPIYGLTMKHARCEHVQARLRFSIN

CN(C(=O)c1ccc2nc(N)c3cncn3c2c1)[C@@H]1COc2cc(C(F)(F)F)ccc21 [Compound 12]
half-life at 1 μM (in vitro [1]): > 2.42 h
half-life at 1 μM [2]: 1.84 h
half-life at 1 μM [3]: 1.86 h
half-life at 1 μM (in vitro [4]): > 2.42 h
half-life at 1 μM [5]: 2.26 h

CN(C(=O)c1ccc2nc(N)c3cncn3c2c1)C1COc2cc(C(F)(F)F)ccc21 (stereo not shown) [Compound 17]
IC50 (CYP1A2): > 30 µM
IC50 (CYP2C19): 15.1 µM
T1/2 of LMS, M [6]: 1.61 h
IC50 (CYP3A4; microsomes): 27.3 µM
IC50 (CYP3A4; read-out: IC50 CYP3A4 (midazolam), human liver microsome, substrate midazolam): > 30 µM
CLint (liver) H [7]: 20.2 mL/min/kg
CLint (hep) H ([7]; human): 7.3 μL/min/10^6
T1/2 (hepatocytes) H ([7]; human): 3.18 h
CLint (liver) R [8]: 49.8 mL/min/kg
CLint (hep) R ([8]; rat): 10.6 μL/min/10^6
T1/2 (hepatocytes) R ([8]; rat): 2.172 h
CLint (liver) C [9]: 62.0 mL/min/kg
CLint (hep) C ([9]; cynomolgus monkey): 17.2 μL/min/10^6
T1/2 (hepatocytes) C ([9]; cynomolgus monkey): 1.34 h
CLint (liver) M [10]: 183.3 mL/min/kg
CLint (hep) M ([10]; mouse): 15.4 μL/min/10^6
T1/2 (hepatocytes) M ([10]; mouse): 1.5 h
CLint (liver) D [11]: 46.9 mL/min/kg
CLint (hep) D ([11]; dog): 6.8 μL/min/10^6
T1/2 (hepatocytes) D ([11]; dog): 3.39 h

CN(C(=O)c1cc2c(cn1)nc(N)c1cncn12)C1CC(F)(F)c2cc(C(F)(F)F)ccc21 (stereo not shown) [Compound 24]
CLint (mic) H ([12]; human liver microsome): <9.6 µL/min/mg
T1/2 of LMS, H ([12]; human liver microsome 0.5 mg protein/mL, 1 μM, NADPH): >2.42 h
CLint (liver) H ([12]; human liver microsome, scaled to liver): <8.6 mL/min/kg
